Measurements from patent publication US9315483B2, “Synthesis of deuterated catechols and benzo[D][1,3]dioxoles and derivatives thereof” (Concert Pharmaceuticals, Inc., priority 2007, dated 2016).

Assays:
[1] = in vitro
Method: (§1) Method: Test Compound A was evaluated at a concentration of 1 μM for apparent metabolic stability by the in vitro t1/2 method described by Obach et al. See Obach R S, Baxter J G, Liston T E, Silber B M, Jones B C, MacIntyre F, et al. The prediction of human pharmacokinetic parameters from preclinical and in vitro metabolism data. JPET 1997; 283:46-58.

[2] = molecular target: CYP2D6 (Homo sapiens, UniProt P10635); test: in vitro
Chain of CYP2D6 (P10635 whole entry): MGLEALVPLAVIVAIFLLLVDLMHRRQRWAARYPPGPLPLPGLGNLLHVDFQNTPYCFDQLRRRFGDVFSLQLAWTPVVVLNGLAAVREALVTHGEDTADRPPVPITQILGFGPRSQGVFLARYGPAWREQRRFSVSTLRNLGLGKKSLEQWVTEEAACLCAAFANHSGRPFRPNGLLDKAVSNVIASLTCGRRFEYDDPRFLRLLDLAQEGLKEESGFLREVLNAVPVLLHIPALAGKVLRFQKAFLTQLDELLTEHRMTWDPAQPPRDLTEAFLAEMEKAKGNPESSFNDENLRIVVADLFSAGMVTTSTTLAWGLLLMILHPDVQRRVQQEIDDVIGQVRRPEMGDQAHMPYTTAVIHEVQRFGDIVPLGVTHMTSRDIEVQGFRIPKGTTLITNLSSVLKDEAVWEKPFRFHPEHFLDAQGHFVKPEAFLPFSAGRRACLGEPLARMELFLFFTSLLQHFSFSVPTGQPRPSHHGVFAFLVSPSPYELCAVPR
Method: Method: This study was conducted according to the procedure established by Bertelsen et al for paroxetine. See Bertelsen K M, Venkatakrishnan K, von Moltke L L, Obach S, Greenblatt, D J. Apparent mechanism-based inhibition of human CYP2D6 in vitro by paroxetine: comparison with fluoxetine and quinidine. Drug Met Disp 2003; 31:289-293. Briefly, the test articles were pre-incubated with human liver microsomes for various times followed by the addition of dextromethorphan, a CYP2D6 substrate. The formation of dextrorphan, a CYP2D6-specific metabolite of dextromethorphan, was monitored as a measure of CYP2D6 activity.

[3] = in vitro; remark: listed apart in the source
Method: as §1

[4] = for vasomotor symptoms (VMS); expected
[5] = molecular target: human cDNA-expressed CYP2D6 (Homo sapiens, UniProt P10635); test: Drug-drug interaction potential with tamoxifen: formation of endoxifen from N-desmethyl TAM after pre-incubation with CYP2D6
Chain of human cDNA-expressed CYP2D6 (P10635 whole entry): as above
Source text: Objective: The objective of this study was to determine the potential for the deuterated paroxetine, (3S,4R)-3-((2,2-d2-benzo[d][1,3]dioxol-5-yloxy)methyl)-4-(4-fluorophenyl)piperidine, HCl salt-hemihydrate, to inhibit the formation of endoxifen using human cDNA-expressed CYP2D6 as compared with paroxetine. The deuterated paroxetine, (3S,4R)-3-((2,2-d2-benzo[d][1,3]dioxol-5-yloxy)methyl)-4-(4-fluorophenyl)piperidine, HCl salt-hemihydrate, will be referred to as “Test Compound A” in the following examples and the figures.
Method: Test Compound A was pre-incubated for 20 min at various concentrations with human cDNA-expressed CYP2D6 (500 pmol/mL) in the presence of NADPH, after which aliquots of the reaction mixture were diluted 1:10 in buffer containing NADPH. N-desmethyl TAM (50 μM) was then added to the diluted pre-incubation mixtures. After 45 min of incubation, endoxifen concentrations were determined by LC-MS/MS.

Row | half-life at 1 μM ([1]; human, microsomes) | KI (inactivation) ([2]; human, microsomes) | kinact ([2]; human, microsomes) | half-life at 1 μM ([3]; rat, microsomes) | Structure (SMILES) | inhibition of CYP2D6, expressed as the percentage of dextrorphan formation relative to control ([2]; microsomes) | maximum plasma concentration in humans [4] | t1/2 ([1]; Human liver microsomes 0.5 mg/mL, 1 μM) | mean relative amount remaining at the end of 30 minutes incubation ([1]; human hepatic microsomes 0.5 mg/mL, 1 μM, n=4) | t1/2 less than the corresponding value for paroxetine ([1]; human liver microsomes) | CYP2D6 activity (percentage of dextrorphan formation relative to control) ([2]; 0-10 μM concentration range) | inhibition of CYP2D6 ([2]; as the concentration approached 25 μM) | mechanism-based inactivation of CYP2D6 ([2]; at concentrations up to 10 μM) | kINACT for CYP2D6 inactivation ([2]; human liver microsomes) | t1/2 ([3]; Rat liver microsomes 0.5 mg/mL, 1 μM) | mean relative amount remaining at the end of 30 minutes incubation ([3]; rat hepatic microsomes 0.5 mg/mL, 1 μM, n=4) | t1/2 less than the corresponding value for paroxetine ([3]; rat liver microsomes) | endoxifen produced in the presence of Test Compound A relative to in the presence of paroxetine ([5]; highest concentration (25 μM)) | change in the formation of endoxifen from N-desmethyl tamoxifen ([5]; over the range of concentrations tested (0-25 μM), 20 min pre-incubation with NADPH, N-desmethyl TAM 50 μM, 45 min)
1 | 49 ± 7.8 min | 1960 nM | 0.00133 s⁻¹ | 20.4 ± 2.1 min | Fc1ccc([C@@H]2CCNC[C@H]2COc2ccc3c(c2)OCO3)cc1 [Paroxetine, paroxetine, reference compound] | concentration- and time-dependent inhibition |  |  |  |  |  |  |  |  |  |  |  |  | 
2 |  |  |  |  | Cl.Cl.O.[2H]C1([2H])Oc2ccc(OC[C@@H]3CNCC[C@H]3c3ccc(F)cc3)cc2O1.[2H]C1([2H])Oc2ccc(OC[C@@H]3CNCC[C@H]3c3ccc(F)cc3)cc2O1 [Test Compound A, (3S,4R)-3-((2,2-d2-benzo[d][1,3]dioxol-5-yloxy)methyl)-4-(4-fluorophenyl)piperidine, HCl salt-hemihydrate] |  | ≤ 30 nM | 20.9 ± 2.0 min | 37.2±3.9% | ~57% | remained similar to that of control | Some inhibition | does not exhibit mechanism-based inactivation | could not be calculated | 15.5 ± 1.6 min | 25.5±4.3% | approximately 24% | 12 fold | little to no change
